{"source": "ChEMBL document CHEMBL3994622", "about": "“Design and synthesis of new RAF kinase-inhibiting antiproliferative quinoline derivatives. Part 2: Diarylurea derivatives” (Eur J Med Chem, 2017)", "key": {"A549 [1]": {"tested_on": "A549", "experiment": "Growth inhibition of human A549/ATCC cells incubated for 48 hrs by sulforhodamine B assay", "type": "functional", "conditions": "A549, 48 h"}, "HOP-62": {"tested_on": "HOP-62", "experiment": "Growth inhibition of human HOP62 cells incubated for 48 hrs by sulforhodamine B assay", "type": "functional", "conditions": "HOP-62, 48 h"}, "NCI-H226": {"tested_on": "NCI-H226", "experiment": "Growth inhibition of human NCI-H226 cells incubated for 48 hrs by sulforhodamine B assay", "type": "functional", "conditions": "NCI-H226, 48 h"}, "NCI-H322M": {"tested_on": "NCI-H322M", "experiment": "Growth inhibition of human NCI-H322M cells incubated for 48 hrs by sulforhodamine B assay", "type": "functional"}, "NCI-H522": {"tested_on": "NCI-H522", "experiment": "Growth inhibition of human NCI-H522 cells incubated for 48 hrs by sulforhodamine B assay", "type": "functional", "conditions": "NCI-H522, 48 h"}, "HCT-116": {"tested_on": "HCT-116", "experiment": "Growth inhibition of human HCT116 cells incubated for 48 hrs by sulforhodamine B assay", "type": "functional", "conditions": "HCT-116, 48 h"}, "HCT-15": {"tested_on": "HCT-15", "experiment": "Growth inhibition of human HCT15 cells incubated for 48 hrs by sulforhodamine B assay", "type": "functional", "conditions": "HCT-15, 48 h"}, "HT-29 [2]": {"tested_on": "HT-29", "experiment": "Growth inhibition of human HT-29 cells incubated for 48 hrs by sulforhodamine B assay", "type": "functional", "conditions": "HT-29, 48 h"}, "SW-620": {"tested_on": "SW-620", "experiment": "Growth inhibition of human SW620 cells incubated for 48 hrs by sulforhodamine B assay", "type": "functional", "conditions": "SW-620, 48 h"}, "LOX IMVI": {"tested_on": "LOX IMVI", "experiment": "Growth inhibition of human LOXIMVI cells incubated for 48 hrs by sulforhodamine B assay", "type": "functional"}, "M14": {"tested_on": "M14", "experiment": "Growth inhibition of human M14 cells incubated for 48 hrs by sulforhodamine B assay", "type": "functional", "conditions": "M14, 48 h"}, "SK-MEL-2": {"tested_on": "SK-MEL-2", "experiment": "Growth inhibition of human SK-MEL-2 cells incubated for 48 hrs by sulforhodamine B assay", "type": "functional", "conditions": "SK-MEL-2, 48 h"}, "SK-MEL-28": {"tested_on": "SK-MEL-28", "experiment": "Growth inhibition of human SK-MEL-28 cells incubated for 48 hrs by sulforhodamine B assay", "type": "functional", "conditions": "SK-MEL-28, 48 h"}, "SK-MEL-5": {"tested_on": "SK-MEL-5", "experiment": "Growth inhibition of human SK-MEL-5 cells incubated for 48 hrs by sulforhodamine B assay", "type": "functional", "conditions": "SK-MEL-5, 48 h"}, "UACC-257 [3]": {"tested_on": "UACC-257", "experiment": "Growth inhibition of human UACC257 cells incubated for 48 hrs by sulforhodamine B assay", "type": "functional", "conditions": "UACC-257, 48 h"}, "OVCAR-3": {"tested_on": "OVCAR-3", "experiment": "Growth inhibition of human OVCAR3 cells incubated for 48 hrs by sulforhodamine B assay", "type": "functional", "conditions": "OVCAR-3, 48 h"}, "A498": {"tested_on": "A498", "experiment": "Growth inhibition of human A498 cells incubated for 48 hrs by sulforhodamine B assay", "type": "functional", "conditions": "A498, 48 h"}, "DU-145": {"tested_on": "DU-145", "experiment": "Growth inhibition of human DU145 cells incubated for 48 hrs by sulforhodamine B assay", "type": "functional", "conditions": "DU-145, 48 h"}, "Hs-578T": {"tested_on": "Hs-578T", "experiment": "Growth inhibition of human Hs 578T cells incubated for 48 hrs by sulforhodamine B assay", "type": "functional"}, "T47D": {"tested_on": "T47D", "experiment": "Growth inhibition of human T47D cells incubated for 48 hrs by sulforhodamine B assay", "type": "functional"}, "[4]": {"biological_target": "RAF proto-oncogene serine/threonine-protein kinase (Homo sapiens, UniProt P04049)", "sequence (P04049 whole entry)": "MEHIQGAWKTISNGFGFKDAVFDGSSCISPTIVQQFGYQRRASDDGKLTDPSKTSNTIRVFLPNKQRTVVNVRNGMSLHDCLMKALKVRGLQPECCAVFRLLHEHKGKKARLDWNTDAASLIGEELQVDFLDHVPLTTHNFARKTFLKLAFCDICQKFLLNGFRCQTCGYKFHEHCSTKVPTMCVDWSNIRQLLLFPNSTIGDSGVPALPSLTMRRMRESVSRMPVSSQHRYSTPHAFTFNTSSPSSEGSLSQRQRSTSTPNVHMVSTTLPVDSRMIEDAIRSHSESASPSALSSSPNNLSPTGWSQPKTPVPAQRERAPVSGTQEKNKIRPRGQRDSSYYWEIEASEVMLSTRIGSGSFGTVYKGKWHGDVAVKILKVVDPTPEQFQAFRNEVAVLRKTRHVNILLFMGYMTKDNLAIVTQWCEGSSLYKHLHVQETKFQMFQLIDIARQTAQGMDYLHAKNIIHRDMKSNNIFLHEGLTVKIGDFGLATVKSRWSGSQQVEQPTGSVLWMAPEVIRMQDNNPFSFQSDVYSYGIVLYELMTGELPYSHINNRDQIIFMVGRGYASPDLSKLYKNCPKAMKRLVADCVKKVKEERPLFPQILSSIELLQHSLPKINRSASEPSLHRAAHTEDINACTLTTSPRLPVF", "experiment": "Inhibition of human c-RAF using MEK1 as substrate in presence of [33P]ATP by Hotspot assay"}, "UACC-257 [5]": {"tested_on": "UACC-257", "experiment": "Growth inhibition of human UACC257 cells assessed as cell growth at 0.1 uM incubated for 48 hrs by sulforhodamine B assay relative to control", "type": "functional", "conditions": "UACC-257, 48 h, read-out: Activity"}, "HT-29 [6]": {"tested_on": "HT-29", "experiment": "Growth inhibition of human HT-29 cells assessed as cell growth at 1 uM incubated for 48 hrs by sulforhodamine B assay relative to control", "type": "functional", "conditions": "HT-29, 48 h, read-out: Activity"}, "UO-31": {"tested_on": "UO-31", "experiment": "Growth inhibition of human UO31 cells assessed as cell growth at 1 uM incubated for 48 hrs by sulforhodamine B assay relative to control", "type": "functional", "conditions": "UO-31, 48 h, read-out: Activity"}, "A549 [7]": {"tested_on": "A549", "experiment": "Growth inhibition of human A549/ATCC cells assessed as cell growth at 10 uM incubated for 48 hrs by sulforhodamine B assay relative to control", "type": "functional", "conditions": "A549, 48 h, read-out: Activity"}, "UACC-257 [8]": {"tested_on": "UACC-257", "experiment": "Growth inhibition of human UACC257 cells assessed as cell growth at 10 uM incubated for 48 hrs by sulforhodamine B assay relative to control", "type": "functional", "conditions": "UACC-257, 48 h, read-out: Activity"}, "[9]": {"conditions": "read-out: LC50 (the source's name)"}}, "data": [{"smiles": "COc1cc2cc(Oc3ccc(NC(=O)Nc4cc(C(F)(F)F)cc(C(F)(F)F)c4)cc3)c(C)nc2cc1OC", "values": [{"measurement": "GI50", "setting": "A549 [1]", "result": 1.42, "unit": "µM"}, {"measurement": "TGI", "setting": "A549 [1]", "result": 4.75, "unit": "µM"}, {"measurement": "CC50", "setting": "A549 [1]; [9]", "result": 22.5, "unit": "µM"}, {"measurement": "GI50", "setting": "HOP-62", "result": 1.35, "unit": "µM"}, {"measurement": "TGI", "setting": "HOP-62", "result": 2.88, "unit": "µM"}, {"measurement": "CC50", "setting": "HOP-62; [9]", "result": 6.15, "unit": "µM"}, {"measurement": "GI50", "setting": "NCI-H226", "result": 1.8, "unit": "µM"}, {"measurement": "TGI", "setting": "NCI-H226", "result": 3.91, "unit": "µM"}, {"measurement": "CC50", "setting": "NCI-H226; [9]", "result": 8.53, "unit": "µM"}, {"measurement": "GI50", "setting": "NCI-H322M", "result": 1.16, "unit": "µM"}, {"measurement": "TGI", "setting": "NCI-H322M", "result": 2.57, "unit": "µM"}, {"measurement": "CC50", "setting": "NCI-H322M; [9]", "result": 5.7, "unit": "µM"}, {"measurement": "GI50", "setting": "NCI-H522", "result": 1.25, "unit": "µM"}, {"measurement": "TGI", "setting": "NCI-H522", "result": 2.95, "unit": "µM"}, {"measurement": "CC50", "setting": "NCI-H522; [9]", "result": 6.95, "unit": "µM"}, {"measurement": "GI50", "setting": "HCT-116", "result": "0.589 to 0.59", "unit": "µM"}, {"measurement": "LC50 (50% lethal concentration)", "setting": "HCT-116", "result": 5.16, "unit": "µM"}, {"measurement": "TGI", "setting": "HCT-116", "result": 1.92, "unit": "µM"}, {"measurement": "GI50", "setting": "HCT-15", "result": "0.668 to 0.67", "unit": "µM"}, {"measurement": "LC50 (lethal concentration, 50% net cell kill)", "setting": "HCT-15", "result": 4.91, "unit": "µM"}, {"measurement": "TGI", "setting": "HCT-15", "result": 2.04, "unit": "µM"}, {"measurement": "GI50", "setting": "HT-29 [2]", "result": 1.52, "unit": "µM"}, {"measurement": "TGI", "setting": "HT-29 [2]", "result": 3.46, "unit": "µM"}, {"measurement": "CC50", "setting": "HT-29 [2]; [9]", "result": 7.91, "unit": "µM"}, {"measurement": "GI50", "setting": "SW-620", "result": 1.94, "unit": "µM"}, {"measurement": "LC50", "setting": "SW-620", "result": 39.3, "unit": "µM"}, {"measurement": "TGI", "setting": "SW-620", "result": 5.71, "unit": "µM"}, {"measurement": "GI50", "setting": "LOX IMVI", "result": 1.44, "unit": "µM"}, {"measurement": "TGI", "setting": "LOX IMVI", "result": 2.96, "unit": "µM"}, {"measurement": "CC50", "setting": "LOX IMVI; [9]", "result": 6.12, "unit": "µM"}, {"measurement": "GI50", "setting": "M14", "result": 1, "unit": "µM"}, {"measurement": "TGI", "setting": "M14", "result": 2.88, "unit": "µM"}, {"measurement": "CC50", "setting": "M14; [9]", "result": 8.25, "unit": "µM"}, {"measurement": "GI50", "setting": "SK-MEL-2", "result": 1.82, "unit": "µM"}, {"measurement": "TGI", "setting": "SK-MEL-2", "result": 4.24, "unit": "µM"}, {"measurement": "CC50", "setting": "SK-MEL-2; [9]", "result": 9.88, "unit": "µM"}, {"measurement": "GI50", "setting": "SK-MEL-28", "result": 1.19, "unit": "µM"}, {"measurement": "TGI", "setting": "SK-MEL-28", "result": 3.09, "unit": "µM"}, {"measurement": "CC50", "setting": "SK-MEL-28; [9]", "result": 8.03, "unit": "µM"}, {"measurement": "GI50", "setting": "SK-MEL-5", "result": 1.62, "unit": "µM"}, {"measurement": "TGI", "setting": "SK-MEL-5", "result": 3.28, "unit": "µM"}, {"measurement": "CC50", "setting": "SK-MEL-5; [9]", "result": 6.67, "unit": "µM"}, {"measurement": "GI50", "setting": "UACC-257 [3]", "result": 2.48, "unit": "µM"}, {"measurement": "TGI", "setting": "UACC-257 [3]", "result": 5.49, "unit": "µM"}, {"measurement": "CC50", "setting": "UACC-257 [3]; [9]", "result": 20, "unit": "µM"}, {"measurement": "GI50", "setting": "OVCAR-3", "result": "0.488 to 0.49", "unit": "µM"}, {"measurement": "TGI", "setting": "OVCAR-3", "result": 1.7, "unit": "µM"}, {"measurement": "CC50", "setting": "OVCAR-3; [9]", "result": 4.52, "unit": "µM"}, {"measurement": "GI50", "setting": "A498", "result": 1.6, "unit": "µM"}, {"measurement": "TGI", "setting": "A498", "result": 4.29, "unit": "µM"}, {"measurement": "CC50", "setting": "A498; [9]", "result": 7.98, "unit": "µM"}, {"measurement": "GI50", "setting": "DU-145", "result": 2.38, "unit": "µM"}, {"measurement": "TGI", "setting": "DU-145", "result": 9.36, "unit": "µM"}, {"measurement": "CC50", "setting": "DU-145; [9]", "result": 8.06, "unit": "µM"}, {"measurement": "GI50", "setting": "Hs-578T", "result": 2.65, "unit": "µM"}, {"measurement": "TGI", "setting": "Hs-578T", "result": 6.94, "unit": "µM"}, {"measurement": "CC50", "setting": "Hs-578T; [9]", "result": 8.07, "unit": "µM"}, {"measurement": "GI50", "setting": "T47D", "result": 1.48, "unit": "µM"}, {"measurement": "TGI", "setting": "T47D", "result": 5.67, "unit": "µM"}, {"measurement": "CC50", "setting": "T47D; [9]", "result": 29.1, "unit": "µM"}, {"measurement": "IC50", "setting": "[4]", "result": 0.37, "unit": "µM"}, {"measurement": "growth at 0.1 µM", "setting": "UACC-257 [5]", "result": 110, "unit": "%"}, {"measurement": "growth at 1 µM", "setting": "HT-29 [6]", "result": 75, "unit": "%"}, {"measurement": "growth at 1 µM", "setting": "UO-31", "result": 19, "unit": "%"}, {"measurement": "growth at 10 µM", "setting": "A549 [7]", "result": -31, "unit": "%"}, {"measurement": "growth at 10 µM", "setting": "UACC-257 [8]", "result": -38, "unit": "%"}]}]}
